The supplement of paper PMC10307832

How the values were obtained:
Assay in all cases: relative viability (nuclei count vs DMSO), 5 days (fraction); higher = more cells survive
[1] = compound: CN[C@@H]1C[C@H]2O[C@@](C)([C@@H]1OC)n1c3ccccc3c3c4c(c5c6ccccc6n2c5c31)C(=O)NC4 [Staurosporine]
Summary of the method: (§1)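 Vehicle-anchored 1536-well plates of lung cancer cell lines, held overnight at 37 °C, were pinned with five library-drug doses (not always all listed) spaced by √10. No medium change followed over the next 5 days, after which the cells were fixed, permeabilised and Hoechst-stained together and imaged at 4×. Nuclei were counted with MetaXpress, and viability is treated-well nuclei over vehicle-well nuclei, taken as a median across plates. Plates passed with control CV below 25% and at least one doubling.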

[2] = compound: CC1=C(CC(=O)O)c2cc(F)ccc2/C1=C\c1ccc([S+](C)[O-])cc1 [Sulindac]
Summary of the method: as §1

[3] = compound: O=c1[nH]cc(F)c(=O)[nH]1 [5-Fluorouracil]
Summary of the method: as §1

Which relative viability ([1]; 0.005 µM) does the source give for UMC-11 here?
Its relative viability is 0.977.

What about the relative viability ([1]; 0.01581 µM) of the same cell line?
The relative viability was 0.328.

What about the relative viability ([1]; 0.05 µM) of the same cell line?
The relative viability was 0.295.

And the relative viability ([1]; 0.1581 µM)?
The relative viability was 0.123.

And the relative viability ([1]; 0.5 µM)?
The relative viability was 0.0871.

What about the relative viability ([2]; 0.08 µM) of the same cell line?
Its relative viability is 1.14.

What about the relative viability ([2]; 0.253 µM) of the same cell line?
Its relative viability is 1.01.

And the relative viability ([2]; 0.8 µM)?
Its relative viability is 0.824.

What about the relative viability ([2]; 2.53 µM) of the same cell line?
Its relative viability is 0.869.

And the relative viability ([2]; 8 µM)?
The relative viability was 1.11.

What about the relative viability ([3]; 0.02 µM) of the same cell line?
The relative viability was 0.952.

And the relative viability ([3]; 0.2 µM)?
The relative viability was 0.783.

And the relative viability ([3]; 0.6325 µM)?
The relative viability was 0.519.
